# Data published in patent US7728146B2, “Enzyme inhibitors” (Probiodrug AG, priority 2006, dated 2010).
# Biological target: DP IV (Homo sapiens, UniProt P27487)
# Test: DP IV inhibition IC50, parallel-synthesis compounds tested directly following synthesis (without purification)
# Format: biochemical
# Parameters: IC50 DP4; other: tested directly following parallel synthesis, without purification; compounds of formula (Ib) from parallel synthesis, tested directly following synthesis
# Details: DP IV inhibition; compounds of formula (Ib) from parallel synthesis, tested directly following synthesis (without purification); read-out: IC50
# Method in brief: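 Porcine kidney or recombinant human enzyme (~40-50 μU/ml, HEPES buffer) hydrolysing Gly-Pro-pNA at room temperature, with 5% DMSO final; 11-point 1:2 dilutions from 100 μM final, in duplicate. pNA release read at 405 nm over ~18 min; slopes vs solvent control give residual activity, and IC50 comes from a 4-parameter fit.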
row,IC50 [µM],SMILES
1,34.3,"NCc1c(-c2ccc(Cl)cc2Cl)ncn1Cc1cc(Br)ccc1F [124b, C-[3-(5-Bromo-2-fluoro-benzyl)-5-(2,4-dichloro-phenyl)-3H-imidazol-4-yl]-methylamine]"
2,1.9,"NCc1c(-c2ccc(Cl)cc2Cl)ncn1CC1CCCO1 (stereo not shown) [Example 17b, C-[5-(2,4-dichloro-phenyl)-3-(tetrahydro-furan-2-ylmethyl)-3H-imidazol-4-yl]-methylamine]"
3,1.9,"NCc1c(-c2ccc(Cl)cc2Cl)ncn1Cc1cccc(F)c1 [Example 28b, C-[5-(2,4-dichloro-phenyl)-3-(3-fluoro-benzyl)-3H-imidazol-4-yl]-methylamine]"

# Same assay, conditions: tested directly following parallel synthesis, without purification; read-out: IC50 DP4
row,SMILES,IC50 [µM]
1,"NCc1c(-c2ccc(F)cc2Cl)ncn1Cc1cccs1 [Example 1a, C-[5-(2-Chloro-4-fluoro-phenyl)-3-thio-phen-2-yl-methyl-3H-imid-azol-4-yl]-methyl-amine]",11.8
2,"NCc1c(-c2ccc(F)cc2Cl)ncn1Cc1ccco1 [Example 2a, C-[5-(2-Chloro-4-fluoro-phenyl)-3-furan-2-yl-methyl-3H-imid-azol-4-yl]-methyl-amine]",16.3
3,"NCc1c(-c2ccc(F)cc2Cl)ncn1Cc1ccccc1Cl [Example 3a, C-[3-(2-Chloro-benzyl)-5-(2-chlo-ro-4-fluoro-phenyl)-3H-imid-azol-4-yl]-methyl-amine]",18.1
4,"Cc1ccc(Cn2cnc(-c3ccc(F)cc3Cl)c2CN)o1 [Example 4a, C-[5-(2-Chloro-4-fluo-ro-phenyl)-3-(5-meth-yl-furan-2-yl-methyl)-3H-imid-azol-4-yl]-methyl-amine]",34.3
5,"NCc1c(-c2ccc(F)cc2Cl)ncn1Cc1ccc(F)cc1 [Example 5a, C-[5-(2-Chloro-4-fluoro-phenyl)-3-(4-fluoro-benzyl)-3H-imid-azol-4-yl]-methyl-amine]",10.9
6,"NCc1c(-c2ccc(F)cc2Cl)ncn1Cc1cccc(C(F)(F)F)c1 [Example 6a, C-[5-(2-Chloro-4-fluoro-phenyl)-3-(3-tri-fluoromethyl-benzyl)-3H-imid-azol-4-yl]-methyl-amine]",17.2
7,"NCc1c(-c2ccc(F)cc2Cl)ncn1Cc1ccc(F)cc1F [Example 7a, C-[5-(2-Chloro-4-fluoro-phenyl)-3-(2,4-difluoro-benzyl)-3H-imid-azol-4-yl]-methyl-amine]",27.1
8,"CCCn1cnc(-c2ccc(F)cc2Cl)c1CN [Example 8a, C-[5-(2-Chloro-4-fluoro-phenyl)-3-pro-pyl-3H-imid-azol-4-yl]-methyl-amine]",48.7
9,"COc1cccc(Cn2cnc(-c3ccc(F)cc3Cl)c2CN)c1 [Example 9a, C-[5-(2-Chloro-4-fluoro-phenyl)-3-(3-methoxy-benzyl)-3H-imid-azol-4-yl]-methyl-amine]",16.3
10,"NCc1c(-c2ccc(F)cc2Cl)ncn1Cc1cccc(F)c1 [Example 10a, C-[5-(2-Chloro-4-fluoro-phenyl)-3-(3-fluoro-benzyl)-3H-imid-azol-4-yl]-methyl-amine]",14.5
11,"NCc1c(-c2ccc(F)cc2Cl)ncn1Cc1ccsc1 [Example 11a, C-[5-(2-Chloro-4-fluoro-phenyl)-3-thiophen-3-ylmethyl-3H-imidazol-4-yl]-methylamine]",4.6
12,"NCc1c(-c2ccc(F)cc2Cl)ncn1Cc1cc(Br)ccc1F [Example 12a, C-[3-(5-Bromo-2-fluoro-benzyl)-5-(2-chloro-4-fluoro-phenyl)-3H-imid-azol-4-yl]-methyl-amine]",32.5

# Further lines, results first:
row,IC50 [µM],SMILES
1,36.1,"NCc1c(-c2ccc(F)cc2Cl)ncn1Cc1c(F)cccc1Cl [Example 13a, C-[3-(2-Chloro-6-fluoro-benzyl)-5-(2-chloro-4-fluoro-phenyl)-3H-imid-azol-4-yl]-methyl-amine]"
2,19.9,"Cc1ccccc1Cn1cnc(-c2ccc(F)cc2Cl)c1CN [Example 14a, C-[5-(2-Chloro-4-fluoro-phenyl)-3-(2-methyl-benzyl)-3H-imid-azol-4-yl]-methyl-amine]"
3,10.9,"NCc1c(-c2ccc(F)cc2Cl)ncn1Cc1ccccc1 [Example 15, C-[3-Benzyl-5-(2-chloro-4-fluoro-phenyl)-3H-imid-azol-4-yl]-methyl-amine]"
4,28,"NCc1c(-c2ccc(F)cc2Cl)ncn1Cc1ccc2c(c1)OCO2 [Example 16a, C-[3-Ben-zo[1,3]di-oxol-5-yl-methyl-5-(2-chlo-ro-4-fluoro-phenyl)-3H-imid-azol-4-yl]-methyl-amine]"
5,19,"NCc1c(-c2ccc(F)cc2Cl)ncn1Cc1ccc(F)c(F)c1 [Example 17a, C-[5-(2-Chloro-4-fluoro-phenyl)-3-(3,4-difluoro-benzyl)-3H-imid-azol-4-yl]-methyl-amine]"
6,6.4,"CCOc1ccccc1Cn1cnc(-c2ccc(F)cc2Cl)c1CN [Example 18a, C-[5-(2-Chloro-4-fluoro-phenyl)-3-(2-ethoxy-benzyl)-3H-imidazol-4-yl]-methylamine]"
7,35.2,"NCc1c(-c2ccc(F)cc2Cl)ncn1Cc1ccccc1C(F)(F)F [Example 19a, C-[5-(2-Chloro-4-fluoro-phenyl)-3-(2-tri-fluorometh-yl-benzyl)-3H-imid-azol-4-yl]-methyl-amine]"
8,34.3,"NCc1c(-c2ccc(F)cc2Cl)ncn1Cc1cccc(Cl)c1Cl [Example 20a, C-[5-(2-Chloro-4-fluoro-phenyl)-3-(2,3-di-chloro-benzyl)-3H-imid-azol-4-yl]-meth-ylamine]"
9,35.2,"CC(C)(C)Cn1cnc(-c2ccc(F)cc2Cl)c1CN [Example 21a, C-[5-(2-Chloro-4-fluoro-phenyl)-3-(2,2-di-methyl-propyl)-3H-imid-azol-4-yl]-methyl-amine]"
10,37.9,"NCc1c(-c2ccc(F)cc2Cl)ncn1Cc1ccc(Cl)cc1 [Example 22a, C-[3-(4-Chloro-benzyl)-5-(2-chloro-4-fluoro-phenyl)-3H-imid-azol-4-yl]-methyl-amine]"
11,5.5,"NCc1c(-c2ccc(F)cc2Cl)ncn1Cc1ccccc1OC(F)(F)F [Example 23a, C-[5-(2-Chloro-4-fluoro-phenyl)-3-(2-tri-fluoromethoxy-benzyl)-3H-imid-azl-4-yl]-methyl-amine]"
12,43.3,"Cc1ccc(Cn2cnc(-c3ccc(F)cc3Cl)c2CN)cc1 [Example 24a, C-[5-(2-Chloro-4-fluoro-phenyl)-3-(4-methyl-benzyl)-3H-imid-dazol-4-yl]-methyl-amine]"
13,33.4,"NCc1c(-c2ccc(F)cc2Cl)ncn1Cc1ccc(Cl)c(Cl)c1 [Example 25a, C-[5-(2-Chloro-4-fluoro-phenyl)-3-(3,4-di-chloro-benzyl)-3H-imid-azol-4-yl]-methyl-amine]"
14,39.7,"NCc1c(-c2ccc(F)cc2Cl)ncn1Cc1c(Cl)cccc1Cl [Example 26a, C-[5-(2-Chloro-4-fluoro-phenyl)-3-(2,6-di-chloro-benzyl)-3H-imid-azol-4-yl]-methyl-amine]"
15,22.6,"NCc1c(-c2ccc(F)cc2Cl)ncn1Cc1cc(F)ccc1F [Example 27a, C-[5-(2-Chloro-4-fluoro-phenyl)-3-(2,5-difluoro-benzyl)-3H-imid-azol-4-yl]-methyl-amine]"
16,19,"NCc1c(-c2ccc(F)cc2Cl)ncn1Cc1ccccc1F [Example 28a, C-[5-(2-Chloro-4-fluoro-phenyl)-3-(2-fluoro-benzyl)-3H-imid-azol-4-yl]-methyl-amine]"
